The results in this text go back to patent US20050084484A1, “Reduction of oxidative stress factors” (Probi AB, priority 1999, published 2005).

Experiment [1] relates to monocytes and lymphocytes. Put plainly: Effect of ibuprofen on ROS production, comparative study. Type of experiment: in vivo, human. The following applies: ibuprofen 500 mg/d for 3 weeks, six healthy volunteers; preliminary data; compared with Lactobacillus plantarum 299v. As for the experimental part:
The measurement of cell oxidation is based on reactive oxygen species (ROS) mediated conversion of nonfluorescent 2,7′-dichlorofluorescein (DCFH), loaded into cells as 2,7′-dichlorofluorescein diacetate, into fluorescent DCF with increased fluorescence emission reflecting enhanced oxidative stress. Freshly isolated PBMC, consisting of approximatively 30% monocytes and 70% lymphocytes, were resuspended in phosphate buffered saline (PBS) followed by incubation with 20 μM […] at 37° C. for 30 min in the dark. The cells were then washed with PBS. The relative fluorescence intensity of the fluorophore 2′,7-dichlorofluorescein, which is formed by peroxide oxidation of its nonfluorescent precursor, was detected with cytofluorimetric assay (FACScan, Becton Dickinson). During flow cytometric analysis monocytes and lymphocytes were gated on the basis of forward scater (FCS) and side scater (SCC). The results are expressed as mean fluorescence intensity […].
In order to investigate the mechanisms behind the reduction of ROS by ibuprofen, a propionic acid derivative and a well-known antiinflammatory drug, ibuprofen was administered in an amount of 500 mg/d to the same group of six healthy volunteers as participated in the study described in Test 1 for 3 weeks.

Experiment [2] relates to Human monocyte macrophage cells. As to the kind of experiment: Propionic acid induced reduction of oxidative stress (8-Isoprostane EIA). Type of experiment: cell-based. The conditions noted are these: 10 μM propionic acid 4 h, then LPS 1.0 ng/ml 24 h; versus control cells; mean of 3 experiments. As for the experimental part: Human monocyte macrophage cells were isolated as described above and 6 million cells were preincubated in 2 ml of RPMI-1640 medium (10% fetalcalf serum, […] of penicillin/streptomycin, 2 mM glutamine) in dishes having a diameter of […]. 10 μM propionic acid was then added and the cells were incubated at 37° C. for 4 h. The medium was subsequently removed and replaced with fresh medium and the cells were stimulated with LPS (lipopolysaccharide), 1.0 ng/ml medium, in order to provoke prooxidant stress. After 24 h the medium was removed and concentrated 10 times by evaporation. Oxidative stress with and without (control cells) propionic acid was evaluated using the 8-Isoprostane EIA kit from Cayman Chemical.
The reduction of oxidative stress expressed as the mean value from 3 experiments of the decrease in the 8-isoprostane level was 47%.

On to `CC(C)Cc1ccc(C(C)C(=O)O)cc1` (centres unmarked) [ibuprofen], for which the “ROS response of monocytes and lymphocytes” value in experiment [1] is “respond in exactly the same way”.

`CCC(=O)O` [propionic acid]: the “Reduction of oxidative stress, decrease in the 8-isoprostane level” value in experiment [2] is given as 47%.
